Tests used:
[1] = CAS plate assay (removal of iron from the CAS dye); details: 1.2 and 1.5 mg pyoverdine on CAS agar plates
Method: Chrome azurol S (CAS) is a universal method that detects the mobilization of iron, which assays siderphores production. To prepare 100 ml CAS dye, 60.5 mg CAS powder (Sigma) was dissolved in 50 ml distilled water and mixed with 10 ml of 1 mM iron solution (anhydration FeCl3, Alfa Aesar). Then, 40 ml of 72.9 mg HDTMA (Sigma) was added slowly to 60 ml CAS solution with FeCl3 and autoclaved to sterilize. After CAS cool down can be hand held, one-tenth of CAS solution mixed with LP agar medium and immediately poured into plates.
Different concentration of purified pyoverdine was injected into the hole (5 mm) of CAS plates. Plates were incubated at 28° C. for 6 h or until yellow halo appearance.

[2] = tested on: Xanthomonas oryzae pv. oryzae (Xoo)
Drosophila melanogaster = details: previous study, Liu et al. 2010; cited from earlier work

Compound | CAS reaction rate [1] | IC50 toward Xoo (inhibition of cell growth) [2] | LD50 against Xoo (lethal dose) [2] | mortality in Drosophila larvae (Drosophila melanogaster)
C[C@@H](O)[C@@H](NC(=O)[C@@H](NC(=O)[C@H](CCCCN)NC(=O)[C@@H](CO)NC(=O)C1CCN=C2C(NC(=O)CCC(=O)O)=Cc3cc(O)c(O)cc3N21)C(O)c1c[nH]cn1)C(=O)N[C@@H](CO)C(=O)N[C@H]1CCCN(O)C1=O (stereo partly drawn) [pyoverdine, Q-DSer-Lys-OHHis-aDThr-Ser-cOHOrn] | rapidly detected | about 2.035 mg/ml | about 1.98 mg/ml | –
recombinant TccC: TccC gene from P. taiwanensis overexpressed in E. coli (SEQ ID NO:2) | – | – | – | increase the mortality

Source: US20200123495A1, “COMPOSITION AND METHOD FOR CONTROLLING INSECTS AND MICR[…] PSEUDOMONAS […]” (Academia Sinica, priority 2014, published 2020)
